Measurements taken from patent publication US10668067B2, “Pyridine sulfonamides” (AMGEN INC., priority 2016, dated 2020).

Each compound was assayed against human Nav1.7 (Homo sapiens (Human), UniProt Q15858) (assay: Nav 1.7 In Vitro PX Assay (PatchXpress whole cell voltage clamp)). Settings: in-vitro Nav 1.7 PX data.
Type: cell-based
Method in brief: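 HEK293 cells stably expressing human Nav1.7, automated whole-cell clamp at a holding potential giving 20–50% inactivation; 20 ms steps to −10 mV at 0.1 Hz. One concentration per cell for 3 min; peak current inhibition at end of exposure, 3–5 cells per concentration, IC50 fitted from % inhibition.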

human Nav1.7, sequence (Q15858 whole entry): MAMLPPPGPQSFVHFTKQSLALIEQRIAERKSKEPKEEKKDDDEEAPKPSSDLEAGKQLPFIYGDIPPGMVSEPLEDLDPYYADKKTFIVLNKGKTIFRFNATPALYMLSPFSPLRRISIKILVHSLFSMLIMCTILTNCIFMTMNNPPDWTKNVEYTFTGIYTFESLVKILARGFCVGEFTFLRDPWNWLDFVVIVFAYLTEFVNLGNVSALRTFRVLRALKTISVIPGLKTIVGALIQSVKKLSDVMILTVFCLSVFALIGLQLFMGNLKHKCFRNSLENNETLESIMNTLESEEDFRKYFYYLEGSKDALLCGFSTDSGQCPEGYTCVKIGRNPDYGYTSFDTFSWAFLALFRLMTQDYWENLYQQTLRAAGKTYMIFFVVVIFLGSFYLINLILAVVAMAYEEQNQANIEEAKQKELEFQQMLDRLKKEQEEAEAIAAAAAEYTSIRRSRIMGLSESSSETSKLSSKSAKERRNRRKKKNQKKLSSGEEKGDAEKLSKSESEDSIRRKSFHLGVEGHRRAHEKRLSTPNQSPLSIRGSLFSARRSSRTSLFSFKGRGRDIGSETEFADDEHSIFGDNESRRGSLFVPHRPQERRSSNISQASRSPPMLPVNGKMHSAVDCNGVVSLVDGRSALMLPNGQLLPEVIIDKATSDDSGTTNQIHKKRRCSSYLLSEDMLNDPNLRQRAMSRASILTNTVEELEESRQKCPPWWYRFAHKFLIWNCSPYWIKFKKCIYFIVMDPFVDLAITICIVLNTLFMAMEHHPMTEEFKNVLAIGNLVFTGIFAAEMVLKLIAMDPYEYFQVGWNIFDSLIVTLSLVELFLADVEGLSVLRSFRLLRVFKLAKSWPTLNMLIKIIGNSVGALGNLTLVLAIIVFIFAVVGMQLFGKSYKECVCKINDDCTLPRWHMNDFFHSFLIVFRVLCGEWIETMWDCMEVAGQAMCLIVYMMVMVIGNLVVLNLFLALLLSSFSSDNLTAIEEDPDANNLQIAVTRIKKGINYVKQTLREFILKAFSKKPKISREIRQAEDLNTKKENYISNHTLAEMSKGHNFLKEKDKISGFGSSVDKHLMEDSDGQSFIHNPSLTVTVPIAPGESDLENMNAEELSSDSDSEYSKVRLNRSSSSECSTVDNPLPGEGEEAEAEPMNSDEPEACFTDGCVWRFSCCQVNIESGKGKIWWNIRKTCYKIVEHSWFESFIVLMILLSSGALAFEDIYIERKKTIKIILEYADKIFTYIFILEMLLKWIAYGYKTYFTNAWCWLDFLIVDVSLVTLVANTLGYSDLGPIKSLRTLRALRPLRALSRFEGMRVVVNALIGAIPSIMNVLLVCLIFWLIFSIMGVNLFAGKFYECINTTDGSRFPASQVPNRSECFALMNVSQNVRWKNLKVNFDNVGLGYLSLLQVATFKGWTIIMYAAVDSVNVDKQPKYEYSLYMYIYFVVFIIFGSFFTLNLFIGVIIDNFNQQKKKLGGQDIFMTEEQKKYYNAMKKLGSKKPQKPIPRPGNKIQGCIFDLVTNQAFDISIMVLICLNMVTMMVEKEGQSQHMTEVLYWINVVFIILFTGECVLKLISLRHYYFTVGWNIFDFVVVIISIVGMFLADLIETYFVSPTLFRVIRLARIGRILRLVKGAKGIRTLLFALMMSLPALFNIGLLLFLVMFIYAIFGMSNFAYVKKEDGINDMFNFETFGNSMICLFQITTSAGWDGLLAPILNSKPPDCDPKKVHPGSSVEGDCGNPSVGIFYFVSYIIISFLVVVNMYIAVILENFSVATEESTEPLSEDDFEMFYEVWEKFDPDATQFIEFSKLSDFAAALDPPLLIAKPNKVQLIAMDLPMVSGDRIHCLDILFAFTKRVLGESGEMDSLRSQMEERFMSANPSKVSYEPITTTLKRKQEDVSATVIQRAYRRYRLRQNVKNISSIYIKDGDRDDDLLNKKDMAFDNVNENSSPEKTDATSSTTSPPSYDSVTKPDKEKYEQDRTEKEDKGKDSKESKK

IC50 | Structure (SMILES)
33 nM | CNC(=O)N(c1ccc(S(=O)(=O)Nc2ncccn2)cn1)c1cc(Cl)c(-c2ccc(F)c(OCC(F)(F)F)c2)cc1OC [Example 3-1, 6-((2-chloro-4′-fluoro-5-methoxy-3′-(2,2,2-trifluoroethoxy)-4-biphenylyl)(methylcarbamoyl)amino)-N-2-pyrimidinyl-3-pyridinesulfonamide]
31 nM | CNC(=O)N(c1ccc(S(=O)(=O)Nc2cnsn2)cn1)c1cc(Cl)c(-c2ccc(F)c(OCC(F)(F)F)c2)cc1OC [Example 3-2, 6-((2-chloro-4′-fluoro-5-methoxy-3′-(2,2,2-trifluoroethoxy)-4-biphenylyl)(methylcarbamoyl)amino)-N-1,2,5-thiadiazol-3-yl-3-pyridinesulfonamide]
73 nM | CNC(=O)N(c1ccc(S(=O)(=O)Nc2cccc(F)n2)cn1)c1cc(Cl)c(-c2ccc(F)c(OCC(F)(F)F)c2)cc1OC [Example 3-3, 6-((2-chloro-4′-fluoro-5-methoxy-3′-(2,2,2-trifluoroethoxy)-4-biphenylyl)(methylcarbamoyl)amino)-N-(6-fluoro-2-pyridinyl)-3-pyridinesulfonamide]
53 nM | CNC(=O)N(c1ccc(S(=O)(=O)Nc2ncco2)cn1)c1cc(Cl)c(-c2ccc(F)c(OCC(F)(F)F)c2)cc1OC [Example 3-4, 6-((2-chloro-4′-fluoro-5-methoxy-3′-(2,2,2-trifluoroethoxy)-4-biphenylyl)(methylcarbamoyl)amino)-N-1,3-oxazol-2-yl-3-pyridinesulfonamide]
76 nM | CNC(=O)N(c1ccc(S(=O)(=O)Nc2ccnc(C)n2)cn1)c1cc(Cl)c(-c2ccc(F)c(OCC(F)(F)F)c2)cc1OC [Example 3-5, 6-((2-chloro-4′-fluoro-5-methoxy-3′-(2,2,2-trifluoroethoxy)-4-biphenylyl)(methylcarbamoyl)amino)-N-(2-methyl-4-pyrimidinyl)-3-pyridinesulfonamide]
51 nM | CNC(=O)N(c1ccc(S(=O)(=O)Nc2ccncn2)cn1)c1cc(Cl)c(-c2ccc(F)c(OCC(F)(F)F)c2)cc1OC [Example 3-6, 6-((2-chloro-4′-fluoro-5-methoxy-3′-(2,2,2-trifluoroethoxy)-4-biphenylyl)(methylcarbamoyl)amino)-N-4-pyrimidinyl-3-pyridinesulfonamide]
28 nM | CNC(=O)N(c1ccc(S(=O)(=O)Nc2ncccn2)cn1)c1cc(Cl)c(-c2ccc(F)c(C(F)(F)F)c2)cc1OC [Example 3-7, 6-((2-chloro-4′-fluoro-5-methoxy-3′-(trifluoromethyl)-4-biphenylyl)(methylcarbamoyl)amino)-N-2-pyrimidinyl-3-pyridinesulfonamide]
14 nM | CNC(=O)N(c1ccc(S(=O)(=O)Nc2cnsn2)cn1)c1cc(Cl)c(-c2ccc(F)c(C(F)(F)F)c2)cc1OC [Example 3-8, 6-((2-chloro-4′-fluoro-5-methoxy-3′-(trifluoromethyl)-4-biphenylyl)(methylcarbamoyl)amino)-N-1,2,5-thiadiazol-3-yl-3-pyridinesulfonamide]
53 nM | CNC(=O)N(c1ccc(S(=O)(=O)Nc2cccc(F)n2)cn1)c1cc(Cl)c(-c2ccc(F)c(C(F)(F)F)c2)cc1OC [Example 3-9, 6-((2-chloro-4′-fluoro-5-methoxy-3′-(trifluoromethyl)-4-biphenylyl)(methylcarbamoyl)amino)-N-(6-fluoro-2-pyridinyl)-3-pyridinesulfonamide]
20 nM | CNC(=O)N(c1ccc(S(=O)(=O)Nc2ncco2)cn1)c1cc(Cl)c(-c2ccc(F)c(C(F)(F)F)c2)cc1OC [Example 3-10, 6-((2-chloro-4′-fluoro-5-methoxy-3′-(trifluoromethyl)-4-biphenylyl)(methylcarbamoyl)amino)-N-1,3-oxazol-2-yl-3-pyridinesulfonamide]
26 nM | CNC(=O)N(c1ccc(S(=O)(=O)Nc2ccnc(C)n2)cn1)c1cc(Cl)c(-c2ccc(F)c(C(F)(F)F)c2)cc1OC [Example 3-11, 6-((2-chloro-4′-fluoro-5-methoxy-3′-(trifluoromethyl)-4-biphenylyl)(methylcarbamoyl)amino)-N-(2-methyl-4-pyrimidinyl)-3-pyridinesulfonamide]
24 nM | CNC(=O)N(c1ccc(S(=O)(=O)Nc2ccncn2)cn1)c1cc(Cl)c(-c2ccc(F)c(C(F)(F)F)c2)cc1OC [Example 3-12, 6-((2-chloro-4′-fluoro-5-methoxy-3′-(trifluoromethyl)-4-biphenylyl)(methylcarbamoyl)amino)-N-4-pyrimidinyl-3-pyridinesulfonamide]
7 nM | CNC(=O)N(c1ccc(S(=O)(=O)Nc2cccnn2)cn1)c1cc(F)c(-c2ccc(F)c(OC(F)(F)F)c2)cc1OC [Example 3-13, 6-((2,4′-difluoro-5-methoxy-3′-(trifluoromethoxy)-4-biphenylyl)(methylcarbamoyl)amino)-N-3-pyridazinyl-3-pyridinesulfonamide]
17 nM | CNC(=O)N(c1ccc(S(=O)(=O)Nc2ncco2)cn1)c1cc(F)c(-c2ccc(F)c(OC(F)(F)F)c2)cc1OC [Example 3-14, 6-((2,4′-difluoro-5-methoxy-3′-(trifluoromethoxy)-4-biphenylyl)(methylcarbamoyl)amino)-N-1,3-oxazol-2-yl-3-pyridinesulfonamide]
461 nM | CNC(=O)N(c1ccc(S(=O)(=O)Nc2ccon2)cn1)c1cc(-c2cc(Cl)cc(OC)c2)ccc1OC [Example 4-1, 6-((3′-chloro-4,5′-dimethoxy-3-biphenylyl)(methylcarbamoyl)amino)-N-3-isoxazolyl-3-pyridinesulfonamide]
187 nM | CNC(=O)N(c1ccc(S(=O)(=O)Nc2ccon2)cn1)c1cc(-c2cccc(C(F)(F)F)c2)ccc1OC [Example 4-2, N-3-isoxazolyl-6-((4-methoxy-3′-(trifluoromethyl)-3-biphenylyl)(methylcarbamoyl)amino)-3-pyridinesulfonamide]
2370 nM | CNC(=O)N(c1ccc(S(=O)(=O)Nc2ccon2)cn1)c1cc(-c2cccc(F)c2)ccc1OC [Example 4-3, 6-((3′-fluoro-4-methoxy-3-biphenylyl)(methylcarbamoyl)amino)-N-3-isoxazolyl-3-pyridinesulfonamide]
173 nM | CNC(=O)N(c1ccc(S(=O)(=O)Nc2ccon2)cn1)c1cc(-c2cc(F)cc(Cl)c2)ccc1OC [Example 4-4, 6-((3′-chloro-5′-fluoro-4-methoxy-3-biphenylyl)(methylcarbamoyl)amino)-N-3-isoxazolyl-3-pyridinesulfonamide]
442 nM | CNC(=O)N(c1ccc(S(=O)(=O)Nc2ccon2)cn1)c1cc(-c2ccc(C)c(Cl)c2)ccc1OC [Example 4-5, 6-((3′-chloro-4-methoxy-4′-methyl-3-biphenylyl)(methylcarbamoyl)amino)-N-3-isoxazolyl-3-pyridinesulfonamide]
90 nM | CNC(=O)N(c1ccc(S(=O)(=O)Nc2ccon2)cn1)c1cc(-c2cccc(C(F)(F)F)c2)c(Cl)cc1OC [Example 4-6, 6-((6-chloro-4-methoxy-3′-(trifluoromethyl)-3-biphenylyl)(methylcarbamoyl)amino)-N-3-isoxazolyl-3-pyridinesulfonamide]
891 nM | CNC(=O)N(c1ccc(S(=O)(=O)Nc2ccon2)cn1)c1cc(-c2cccc(F)c2)c(Cl)cc1OC [Example 4-7, 6-((6-chloro-3′-fluoro-4-methoxy-3-biphenylyl)(methylcarbamoyl)amino)-N-3-isoxazolyl-3-pyridinesulfonamide]
81 nM | CNC(=O)N(c1ccc(S(=O)(=O)Nc2ccon2)cn1)c1cc(-c2cc(Cl)cc(OC)c2)c(Cl)cc1OC [Example 4-8, 6-((3′,6-dichloro-4,5′-dimethoxy-3-biphenylyl)(methylcarbamoyl)amino)-N-3-isoxazolyl-3-pyridinesulfonamide]
76 nM | CNC(=O)N(c1ccc(S(=O)(=O)Nc2ccon2)cn1)c1cc(-c2ccc(C)c(Cl)c2)c(Cl)cc1OC [Example 4-9, 6-((3′,6-dichloro-4-methoxy-4′-methyl-3-biphenylyl)(methylcarbamoyl)amino)-N-3-isoxazolyl-3-pyridinesulfonamide]
7 nM | COc1cc(-c2cccc(C(F)(F)F)c2)c(Cl)cc1N(C(N)=O)c1ccc(S(=O)(=O)Nc2ccon2)cn1 [Example 5-1, 6-(1-(2-chloro-5-methoxy-3′-(trifluoromethyl)-[1,1′-biphenyl]-4-yl)ureido)-N-(isoxazol-3-yl)pyridine-3-sulfonamide]
10 nM | COc1cc(-c2ccc(Cl)c(F)c2)c(Cl)cc1N(C(N)=O)c1ccc(S(=O)(=O)Nc2ccon2)cn1 [Example 5-2, 6-(carbamoyl(2,4′-dichloro-3′-fluoro-5-methoxy-4-biphenylyl)amino)-N-3-isoxazolyl-3-pyridinesulfonamide]
31 nM | COc1cc(-c2cc(Cl)cc(C#N)c2)c(Cl)cc1N(C(N)=O)c1ccc(S(=O)(=O)Nc2ccon2)cn1 [Example 5-3, 6-(carbamoyl(2,3′-dichloro-5′-cyano-5-methoxy-4-biphenylyl)amino)-N-3-isoxazolyl-3-pyridinesulfonamide]
7 nM | COc1cc(-c2cc(OC)c(N(C(N)=O)c3ccc(S(=O)(=O)Nc4ccon4)cn3)cc2Cl)cc(C(F)(F)F)c1 [Example 5-4, 6-(carbamoyl(2-chloro-3′,5-dimethoxy-5′-(trifluoromethyl)-4-biphenylyl)amino)-N-3-isoxazolyl-3-pyridinesulfonamide]
16 nM | COc1cc(-c2cccc(OCC(F)(F)F)c2)c(Cl)cc1N(C(N)=O)c1ccc(S(=O)(=O)Nc2ccon2)cn1 [Example 5-5, 6-(carbamoyl(2-chloro-5-methoxy-3′-(2,2,2-trifluoroethoxy)-4-biphenylyl)amino)-N-3-isoxazolyl-3-pyridinesulfonamide]
167 nM | COC(=O)N(c1ccc(S(=O)(=O)Nc2ccon2)cn1)c1cc(Cl)c(-c2cccc(C(F)(F)F)c2)cc1OC [Example 6, Methyl (2-chloro-5-methoxy-3′-(trifluoromethyl)-[1,1′-biphenyl]-4-yl)(5-(N-(isoxazol-3-yl)sulfamoyl)pyridine-2-yl)carbamate]
